# According to paper PMC8312697, “Mechanistic Investigations Support Liver Safety of Ubrogepant” (Toxicological Sciences, 2020):
# pIC50: −log10 of the molar value. Where two headings read alike, the source gives them in different places.
# How the values were obtained:
# [1] = tested on: rats; experiment: Conventional nonclinical toxicology study, rat; format: in vivo
# Method: (§1) Conventional animal toxicology studies in rats and monkeys were performed by Merck & Co, Inc (West Point, Pennsylvania).
# [2] = tested on: monkeys; experiment: Conventional nonclinical toxicology study, NHP; settings: 9M NHP
# Method: as §1
# [3] = target: T1, CYP3A4 (Homo sapiens, UniProt P08684); experiment: HEK293/CYP3A4 assay of Nrf2 stabilization and CYP3A4 degradation; format: cell-based; settings: HEK293 cells with inducible CYP3A4, Western blot
# T1 construct: expressed in transfected cells; host or cells: HEK293 Flp-In host cell line (Invitrogen/ThermoFisher Flp-In T-REx system)
# T1 sequence (P08684 whole entry): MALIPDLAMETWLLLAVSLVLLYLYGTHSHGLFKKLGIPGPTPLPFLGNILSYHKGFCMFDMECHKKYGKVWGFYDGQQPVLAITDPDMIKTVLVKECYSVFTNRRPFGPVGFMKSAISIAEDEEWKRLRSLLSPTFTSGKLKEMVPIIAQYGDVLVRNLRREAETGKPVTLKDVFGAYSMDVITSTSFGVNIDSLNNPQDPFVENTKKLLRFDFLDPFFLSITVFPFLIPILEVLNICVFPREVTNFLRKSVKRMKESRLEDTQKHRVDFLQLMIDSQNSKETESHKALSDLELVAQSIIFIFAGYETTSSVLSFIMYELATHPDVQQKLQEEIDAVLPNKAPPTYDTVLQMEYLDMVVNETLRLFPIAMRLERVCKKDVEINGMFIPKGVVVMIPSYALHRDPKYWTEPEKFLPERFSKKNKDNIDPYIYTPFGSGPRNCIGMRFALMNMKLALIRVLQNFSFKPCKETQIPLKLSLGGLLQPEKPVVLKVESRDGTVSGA
# Description: Specifically, these assays evaluated the potential of the 3 different CGRP receptor antagonists to form reactive metabolites that promote the stabilization of Nrf2 or covalently bind to CYP3A4, triggering its subsequent time-dependent degradation, as assessed by Western blot. To seek further confirmatory evidence for reactive metabolite formation, a HEK293 cell line expressing doxycycline inducible CYP3A4 P450 enzyme expression construct with a Flag tag epitope fused to the C-terminus was constructed and cloned using the Invitrogen/ThermoFisher Scientific Flp-In T-TEx system and the HEK293 Flp-In host cell line per standard protocol. […] Alternatively, this simplified single CYP test model might not allow for Nrf2 stabilization if sufficient quantities of the chemically reactive metabolite cannot be generated by CYP3A4, or cannot escape the catalytic site of CYP3A4, which would appear on Western blot using anti-Flag antibody as time-dependent CYP3A4 degradation.
# [4] = target: T2, MRP4 (Homo sapiens, UniProt O15439); experiment: MRP4 vesicular transport inhibition assay; format: biochemical; settings: for inhibition of MRP4-mediated probe substrate transport: vesicular transport inhibition assay
# T2 construct: Solvo Biotechnology (Szeged, Hungary), contract laboratory that ran the assay
# T2 sequence (O15439 1-1325): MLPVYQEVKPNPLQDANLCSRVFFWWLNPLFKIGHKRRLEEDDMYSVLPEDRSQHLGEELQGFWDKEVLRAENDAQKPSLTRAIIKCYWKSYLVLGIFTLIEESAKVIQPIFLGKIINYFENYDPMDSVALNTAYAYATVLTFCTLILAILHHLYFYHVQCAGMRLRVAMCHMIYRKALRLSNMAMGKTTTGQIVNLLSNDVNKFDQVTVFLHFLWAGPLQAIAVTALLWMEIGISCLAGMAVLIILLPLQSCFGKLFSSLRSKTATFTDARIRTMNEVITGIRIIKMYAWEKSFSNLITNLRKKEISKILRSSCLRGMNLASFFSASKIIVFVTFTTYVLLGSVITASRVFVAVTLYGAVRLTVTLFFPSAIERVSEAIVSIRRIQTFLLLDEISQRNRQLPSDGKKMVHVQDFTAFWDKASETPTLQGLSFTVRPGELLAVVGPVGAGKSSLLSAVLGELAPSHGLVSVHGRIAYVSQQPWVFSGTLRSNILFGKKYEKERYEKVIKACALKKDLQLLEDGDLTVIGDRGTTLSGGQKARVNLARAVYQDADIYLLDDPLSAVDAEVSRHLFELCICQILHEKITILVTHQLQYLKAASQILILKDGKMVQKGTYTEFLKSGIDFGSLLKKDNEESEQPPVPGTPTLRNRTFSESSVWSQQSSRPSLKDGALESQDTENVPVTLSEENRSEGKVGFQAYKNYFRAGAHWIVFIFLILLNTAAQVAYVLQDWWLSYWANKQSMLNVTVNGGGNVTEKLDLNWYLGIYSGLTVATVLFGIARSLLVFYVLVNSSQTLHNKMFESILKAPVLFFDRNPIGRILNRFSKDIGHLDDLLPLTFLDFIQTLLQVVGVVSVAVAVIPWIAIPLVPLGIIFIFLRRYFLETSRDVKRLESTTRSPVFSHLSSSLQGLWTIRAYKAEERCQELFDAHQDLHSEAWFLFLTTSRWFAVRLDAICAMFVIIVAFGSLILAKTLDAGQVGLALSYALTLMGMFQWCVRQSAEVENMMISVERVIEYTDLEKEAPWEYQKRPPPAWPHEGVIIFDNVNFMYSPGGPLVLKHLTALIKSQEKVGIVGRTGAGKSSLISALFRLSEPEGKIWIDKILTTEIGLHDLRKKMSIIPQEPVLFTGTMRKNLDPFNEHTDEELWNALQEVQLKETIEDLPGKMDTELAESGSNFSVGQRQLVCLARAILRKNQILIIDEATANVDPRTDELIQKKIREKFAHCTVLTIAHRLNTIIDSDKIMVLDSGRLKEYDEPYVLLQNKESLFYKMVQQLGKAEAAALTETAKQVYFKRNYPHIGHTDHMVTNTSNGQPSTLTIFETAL
# Method: To assess the functional impact of ubrogepant on the human ABC efflux transporters BSEP, MRP3, and MRP4, in vitro vesicular transport inhibition assays were conducted by Solvo Biotechnology (Szeged, Hungary). The ability of ubrogepant to inhibit the BSEP-mediated transport (and accumulation) of a probe substrate was tested at concentrations ranging from 0.04 – 30 μM, where the latter defined the upper limit of compound solubility in the BSEP assay buffer. For the MRP3 and MRP4 vesicle-based transporter assessments, ubrogepant concentrations of 0.1 to 70 μM were used. To assess the functional impact of ubrogepant on the human SLC (uptake) transporter NTCP, in vitro experiments were performed using HEK293 cells stably expressing NTCP. The ability of ubrogepant to inhibit NTCP-mediated uptake (and accumulation) of taurocholate was tested at concentrations ranging from 0.04 – 30 μM.
# To assess the functional impact of MK-3207 on the human ABC efflux transporters BSEP, MRP3 and MRP4, in vitro vesicular transport inhibition assays were conducted by Solvo Biotechnology (Szeged, Hungary) and overseen by DSSI. BSEP transport was assessed in the presence of 0.5-30 µM MK-3207; MRP3 and MRP4 transport was assessed in the presence of 0.11-80 µM MK-3207. The upper limits of these ranges were determined by compound solubility in each assay buffer. NTCP transporter inhibition was assessed in NTCP-expressing HEK293 cells in the presence of 0.03 – 25 µM MK-3207.
# IC50 values for MK-3207 were calculated for each of the transporters; these values were used as inputs into DILIsym. It was assumed that inhibition type for MK-3207 for MRP3 and MRP4 was mixed with α= 5; this is a typical value for bile acid transporter inhibitors in the experience of the DSS team.
# [5] = tested on: clinical trial participants; design: cases of ALT or AST ≥ 3× ULN: unit not given here; settings: cited from earlier work
# [6] = among the 5 patients with ALT > 3-fold ULN at > 500 mg daily, ref Hargreaves and Olesen, 2019, Hewitt et al., 2011
SMILES,Pivotal conventional nonclinical toxicology study liver findings ([1]; 6M rat),exposure margin ([1]; 6M rat),Pivotal conventional nonclinical toxicology study liver findings [2],exposure margin [2],formation of reactive metabolites that covalently bind to CYP3A4 and result in its degradation [3],"inhibition at 70 µM ([4]; human, membrane vesicles with MRP4 (vesicular transport assay), 70 µM (solubility limit), read-out: maximum inhibition at the highest concentration tested, MRP4)",inhibition of MRP4-mediated probe substrate transport [4],"ALT/AST ≥ 3-fold ULN, number of participants ([5]; 100 mg QD 2 days on, 2 days placebo, alternating, 8 weeks, healthy adults, n = 256, ref Goadsby et al., 2019)","cases of ALT or AST ≥ 3× ULN ([5]; 52-week long-term extension trial, 1230 people, ref Ailani et al., 2019)",Pivotal conventional nonclinical toxicology study liver findings ([1]; 3M rat),exposure margin ([1]; 3M rat),"pIC50 ([4]; curve fitting assuming maximum inhibition at higher concentrations is 100%, read-out: MRP4 estimated lowest possible IC50)","inhibition at 20 µM ([4]; human, membrane vesicles with MRP4 (vesicular transport assay), read-out: maximum inhibition at the highest concentration tested, MRP4)","Clinical ALT > 3× ULN ([5]; 140 mg BID 12 weeks, ref Ho et al., 2014)","Clinical ALT > 3× ULN ([5]; 140 mg BID 12 weeks, ref Ho et al., 2014, listed as telcagepant)","Clinical ALT > 3× ULN ([5]; 280 mg BID 12 weeks, ref Ho et al., 2014)","patients symptomatic with Hy’s law [5, 6]","patients with > 20-fold ALT rises [5, 6]","Clinical ALT > 3× ULN ([5]; daily doses > 500 mg, individuals dosed for more than 1 week, most responding given 600–900 mg per day, ref Hargreaves and Olesen, 2019, Hewitt et al., 2011)","ALT > 3-fold ULN after 2 weeks ([5]; daily doses of < 100 mg, ref Hargreaves and Olesen, 2019, Hewitt et al., 2011)"
C[C@@H]1[C@H](c2ccccc2)C[C@H](NC(=O)c2cnc3c(c2)C[C@@]2(C3)C(=O)Nc3ncccc32)C(=O)N1CC(F)(F)F [Ubrogepant],< 2× ALT with no liver histopathology,70 ×,no liver safety signal,163 ×,did not,< 50%,did not inhibit MRP4,2,20,–,–,–,–,–,–,–,–,–,–,–
O=C(N[C@@H]1CC[C@@H](c2cccc(F)c2F)CN(CC(F)(F)F)C1=O)N1CCC(n2c(=O)[nH]c3ncccc32)CC1 [Telcagepant],no liver safety signal,7 ×,no liver safety signal,7 ×,did not,–,inhibited,–,–,< 3× ALT/AST with no liver histopathology,15 ×,≤ 4.77,< 50%,"1.9% (5/258) ([Ho et al., 2014])",1.9%,3.2%,–,–,–,–
O=C(CN1C(=O)C2(CCCC2)NC[C@H]1c1cc(F)cc(F)c1)Nc1ccc2c(c1)C[C@@]1(C2)C(=O)Nc2ncccc21 [MK-3207],no liver safety signal,25 ×,no liver safety signal,4 ×,formed reactive metabolites that covalently bind to CYP3A4 and result in its degradation,–,No inhibition was observed,–,–,–,–,–,–,–,–,–,1,3,42% (5/12) among individuals dosed for more than 1 week; most responding were given 600–900 mg per day,1%
